Results from the supplement of paper PMC10307832.

Columns and labels:
Test in all cases: relative viability (nuclei count vs DMSO), 5 days (fraction); higher = more cells survive
[1] = compound: CCn1c(-c2nonc2N)nc2c(C#CC(C)(C)O)ncc(OC[C@H]3CCCNC3)c21 + COc1cc2c(Oc3ccc(NC(=O)C4(C(=O)Nc5ccc(F)cc5)CC4)cc3F)ccnc2cc1OCCCN1CCOCC1 [Foretinib] (partner 0.25 µM)
Outline: (§1)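 Relative viability was taken as the ratio of nuclei in treated wells to nuclei in vehicle wells. Lung cancer cell lines in 1536-well plates received compounds by pin tool one day after seeding, either one drug alone or a fixed anchor-drug dose plus five library-drug doses (not always all listed) in √10 steps. Nuclei were counted on 4× images after 5 days of treatment, and values are medians of duplicate plates.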

BAM7 + Dasatinib = compound: CCOC1=CC=CC=C1N=NC2=C(NN(C2=O)C3=NC(=CS3)C4=CC=CC=C4)C [BAM7] + Cc1nc(Nc2ncc(C(=O)Nc3c(C)cccc3Cl)s2)cc(N2CCN(CCO)CC2)n1 [Dasatinib] (partner 0.075 µM)
Outline: as §1

[2] = compound: CCn1c(-c2nonc2N)nc2c(C#CC(C)(C)O)ncc(OC[C@H]3CCCNC3)c21 + C[C@@H](Oc1cc(-c2cnn(C3CCNCC3)c2)cnc1N)c1c(Cl)ccc(F)c1Cl [Crizotinib] (partner 1 µM)
Outline: as §1

BAM7 + Alpelisib = compound: CCOC1=CC=CC=C1N=NC2=C(NN(C2=O)C3=NC(=CS3)C4=CC=CC=C4)C [BAM7] + Cc1nc(NC(=O)N2CCC[C@H]2C(N)=O)sc1-c1ccnc(C(C)(C)C(F)(F)F)c1 [Alpelisib] (partner 2 µM)
Outline: as §1

Cell Line | relative viability ([1]; first compound 0.01 µM) | relative viability ([1]; first compound 0.03162 µM) | relative viability ([1]; first compound 0.1 µM) | relative viability ([1]; first compound 0.3162 µM) | relative viability ([1]; first compound 1 µM) | relative viability (BAM7 + Dasatinib; first compound 0.5 µM) | relative viability (BAM7 + Dasatinib; first compound 5 µM) | relative viability (BAM7 + Dasatinib; first compound 15.81 µM) | relative viability (BAM7 + Dasatinib; first compound 50 µM) | relative viability ([2]; first compound 0.01 µM) | relative viability ([2]; first compound 0.03162 µM) | relative viability ([2]; first compound 0.1 µM) | relative viability ([2]; first compound 0.3162 µM) | relative viability ([2]; first compound 1 µM) | relative viability (BAM7 + Alpelisib; first compound 0.5 µM) | relative viability (BAM7 + Alpelisib; first compound 5 µM) | relative viability (BAM7 + Alpelisib; first compound 15.81 µM) | relative viability (BAM7 + Alpelisib; first compound 50 µM)
SK-LU-1 | 0.754 | 0.896 | 0.737 | 0.816 | 0.749 | 0.172 | 0.18 | 0.191 | 0.168 | 1.11 | 0.817 | 0.925 | 0.978 | 0.987 | 0.703 | 1.1 | 0.955 | 1.09
SK-MES-1 | 0.908 | 0.876 | 1.02 | 0.819 | 0.828 | 0.366 | 0.289 | 0.3 | 0.336 | 0.989 | 0.982 | 0.963 | 0.909 | 0.982 | 1.1 | 0.9 | 0.985 | 1.01
SW 1573 | 0.89 | 0.799 | 0.812 | 0.728 | 0.763 | 0.575 | 0.65 | 0.454 | 0.431 | 0.699 | 0.767 | 0.734 | 0.762 | 0.704 | 0.777 | 0.833 | 0.85 | 0.75
